Values after ≈ are worked out from the molar mass of the structure shown.
Experiments:
[1] = Octanol/buffer (pH 7.4) partition coefficient; type: physicochemical
From the text: (§1) Certain porphyrins are photosensitizing compounds useful in photodynamic therapy against tumors. […] Several classes of photosensitizers were screened for comparative binding to iron:carbon particles of various composition. The wavelength near the activation wavelength (often the λmax) of a particular photosensitizer was used for quantitative drug measurements. […] The photosensitizers tested were hematoporphyrin derivative (HPD); benzoporphyrin derivative monoacid A (BPD-ma); Photofrin® porfimer sodium (PF2); and clorin e6. For the binding studies, 10 mg of carbon or 50 mg of iron:carbon particles were optimum. An octanol/buffer (pH 7.4) partition coefficient for the four compounds was as follows: HPD=1; chlorin e6=1.1; PF2=0.1≧; and BPD-ma=4000>.

[2] = Comparative binding of photosensitizers to iron:carbon particles; type: physicochemical; conditions: 80 mcg/ml (0.11 mM) in PBS pH 7.4, 50 mg particles
From the text: as §1

[3] = Release of adsorbed Re into saline over 24 hours; type: physicochemical
Experimental: (§2) An adaptation of a colorimetric Re assay used in the field of metallurgy was used to determine the adsorption of the Re onto carrier particles having a 70:30 iron:carbon ratio. In brief, a 0.1 to 0.5 ml sample was placed in a solution containing 1.0 ml of HCl, 1.3 ml of −α furildoxime (6% in acetone), 0.5 ml of 10% stannous chloride and sufficient water to make 5.0 ml. The mixture was heated to 45° C. for 20 minutes and allowed to cool to room temperature. The absorbance of Re in the solution was measured at 532 nm. The sensitivity of the assay was to about 5 mcg Re. […] As with other drugs, the % binding of Re in the adsorption medium decreases as the Re to carbon ratio increases. […] Release over 24 hours of the Re into physiological saline at ambient temperature from the various carbons preloaded with adsorbed Re was 50% by weight.
Less than 10% of the Re was released upon incubation under efflux conditions in saline over 24 hours. The low binding of Re to the carrier particles is consistent with the low binding of other charged, small ionic molecules to activated carbon as compared with the high affinity binding of hydrophobic aromatic molecules. These findings are consistent with use of the carrier particles of the invention with adsorbed Re or Tc as imaging and therapeutic agents.

[4] = Re binding to a series of carbons (colorimetric Re assay); type: physicochemical; conditions: ambient temperature
Experimental: as §2

[5] = Effect of adsorption medium composition on Dox binding to carrier particles; type: physicochemical; conditions: six test adsorption media; particles first in viscosity agent, Dox/saline added later
Experimental: Additional studies were conducted to compare the effect of the composition of the adsorption solution on the binding of the Dox to carrier particles having an iron:carbon ratio in the range 60:40 to 80:20. The following six test adsorption media compositions were formulated to provide sufficient viscosity to keep the carrier particles physically separate during adsorption of the Dox. The particles were first placed in the viscosity agent and the Dox/saline solution was later added.
1. 10% mannitol; 2% sodium carboxymethyl cellulose (CMC) (medium viscosity); 2% polyvinyl pyrrolidone (PVP in 50 mM citrate phosphate buffer
2. 5% mannitol; 2% CMC; 2% PVP in 50 mM citrate phosphate buffer.
3. 5% mannitol; 2% CMC; 2% PVP; 5% sorbitol in 50 mM citrate phosphate buffer.
4. 10% mannitol; 1% CMC; 2% PVP (K15) in 10 mM potassium phosphate buffer (pH 7.4).
5. 10% mannitol; 1% sodium CMC; potassium phosphate buffer (pH 7.4).
6. 5% sorbitol; 1% sodium CMC; 2% PVP (K1 5); 5% mannitol; in potassium phosphate buffer (pH 7.4)

[6] = Adsorption curves and adsorption constants of pharmaceutical agents on iron:carbon carrier particles; type: physicochemical
Experimental: Adsorption upon the particles of various types of pharmaceutical agents at a range of concentrations of the pharmaceutical agent in the absorption solution was performed to determine the absorption curves and absorption constants for each compound as follows: A 16-mer anti-C-Myc oligonucleotide useful in antisense gene-directed therapy is an all phosphorothioate oligodeoxynucleotide, fluorescein-labeled at 5′ end (Macromolecular Resources, Fort Collins, Colo.). […] Unbound drug in adsorption supernatants was determined from the fluorescein fluorescence (Exc. 495 nm, em. 549 nm) using a standard curve. Hematoporphyrin dihydrochloride (Sigma Chemical, USA, H-1875, Lot #23H0879) is a photosensitizer useful in tumor therapy. The compound accumulates by biological processes in certain types of tumor tissue. Upon exposure to light, such as provided by a laser, the compound undergoes a chemical transformation to produce oxygen singlets that are toxic to cells in which it has accumulated. A stock adsorption solution was prepared and drug concentration was determined by spectrophotometry according to G. Garbo et al. Anal. […] The adsorption equation determined by computer analysis using commercially available software was: […] 6-Mercaptopurine sodium salt (provided by Dr. Gruber, Burroughs Wellcome, Lot #7P2774) is an anti-inflammatory agent. […] Drug concentration in adsorption supernatants was determined by spectrophotometry (standard curve: […] Drug concentrations in adsorption supernatants determined by spectrophotometry yielded the following equation for the concentration curve: […] Drug concentration in adsorption supernatants as determined by spectrophotometry yield the following equation for the concentration curve: […] Concentration was determined by absorbance at 253 nm (λmax=253 nm in saline solution).

[7] = Binding and release of BPD-ma with prototype iron:carbon carrier particles (MTCs); type: physicochemical; conditions: from a 10-fold increase in the initial concentration of the drug; isopropanol medium, 18 hours
Experimental: In order to achieve higher loading levels of BPD-ma, the binding capacity and fractional binding of the drug to four prototype iron:carbon carrier particles (MTCs, or, magnetic targeted compounds) was tested using 1.4 mM drug in isopropanol (with 0.5% 0.02 M acetic acid) as the adsorption medium and a longer equilibration period of 18 hours.

[8] = system: carcinosarcoma Walker 256; assay: Treatment of Walker 256 carcinosarcoma under the tail skin of rats: life span and tumor dissolution; type: in vivo, rats of the Wistar Line; conditions: group II; water solution i.v. 2 mg/kg during 5 days; versus control group I (21±1.5 days); P<0.05
Experimental: Tests were carried out on male rats of the Wistar Line (bred at Stolbovaya Station of the USSR Academy of Medical Sciences). The rats were infused with carcinosarcoma Walker 256 under the tail skin. When the tumorous volume averaged 986±98 mm^3 the animals were divided into 4 groups, 10 rats in each. The first group (group I) was a control group, and groups II through IV were experimental groups.
The animals in group II were given intravenous injections of a water solution of rubomicine in the amount of 2 mg/kg of body weight during 5 days (the model of traditional use of such anti-cancerous preparations in clinics). The rats in group III were injected with a suspension of ferrocarbon dispersion produced by the previously known method described in European Patent Office Publication No. 0 451 299 A1. The particles comprised iron/carbon in a volume percent ratio of 60:40. The dosage of ferrocarbon particles was 160 mg/kg of body weight, and the dosage of adsorbed rubomicine thereon was 3.2 mg/g of particles. This suspension was injected into the tail vein after placing on the surface of the tumor a permanent magnet with a magnetic field intensity of 6000 oersteds. Localization of the suspension in the tumorous growth zone under control of the externally placed magnetic field was monitored by x-ray pictures. […]

[9] = system: tumor cells in culture; assay: In vitro cytotoxicity evaluation with magnetic field retention of carrier particles; type: cell-based; conditions: Homo sapiens; released paclitaxel: with or without magnet
Experimental: The IC50 for free paclitaxel alone was identical (5 ng/mL) to paclitaxel released from the carrier particles with or without magnet (5 ng/mL).

[10] = system: human squamous carcinoma cell line, SCC-9; assay: Long-term CF clonogenic assay; type: cell-based; conditions: colonies after 2-3 weeks
Experimental: A separate long-term CF clonogenic assay was evaluated concurrently. In this assay, cells were plated on 35 mm petri dishes and exposed to drug and controls as outlined above. Treated cells were incubated for 2-3 weeks to allow time for colonies to establish. These colonies were fixed in 2% acetic acid and 8% ethanol and stained with crystal violet. The colonies were counted under a Bella Glass Plate Reader.

[11] = 80:20 Type K, 0.9% NaCl, pH 10.4, equilibration 2 hrs
[12] = 75:25 Type K, Saline solution, equilibration 0.5 hr

| Compound | octanol/buffer partition coefficient [1] | % binding, % ([2]; iron:carbon 30:70 Type A) | % binding, mg/mg % ([2]; iron:carbon 30:70 Type A) | % binding, % ([2]; iron:carbon 30:70 Type E) | % binding, mg/mg % ([2]; iron:carbon 30:70 Type E) | other results |
| --- | --- | --- | --- | --- | --- | --- |
| Photofrin® porfimer sodium [PF2] | ≤ 0.1 | 11.4% | 0.13 mg/mg % | 7.2% | 0.08 mg/mg % |  |
| [Re] [Re, rhenium] |  |  |  |  |  | Re released over 24 hours ([3]; from iron:carbon carrier particles, efflux conditions in saline): Less than 10%; release of Re over 24 hours ([3]; from the various carbons preloaded with Re, physiological saline, ambient temperature): 50 % by weight; Re binding to a series of carbons ([4]; 30 mg carbon in the adsorption medium): about 35%; Re binding to a series of carbons ([4]; 180 mg carbon in the adsorption medium): about 90% |
| COc1cccc2c1C(=O)c1c(O)c3c(c(O)c1C2=O)C[C@@](O)(C(=O)CO)C[C@@H]3O[C@H]1C[C@H](N)[C@H](O)[C@H](C)O1 [doxorubicin] |  |  |  |  |  | adsorption of Dox to the carrier particles by adsorption medium [5]: highest adsorption of Dox to the carrier particles was obtained using formulae 4, 5, and 6 |
| Sc1ncnc2nc[nH]c12.[Na] [6-MP Mercaptopurine, 6-Mercaptopurine sodium salt] |  |  |  |  |  | Adsorption constant [6, 11]: 0.24 ± 0.064 (mg/ml)^−1; Maximum adsorption (% of carrier weight) [6, 11]: 11.0 ± 0.97 % of carrier weight |
| C[C@@H]1[C@H](O)[C@@H](C)/C=C/C=C/C=C/C=C/C=C/C=C/C=C/[C@H](O[C@@H]2O[C@H](C)[C@@H](O)[C@H](N)[C@@H]2O)C[C@@H]2O[C@](O)(C[C@@H](O)C[C@@H](O)[C@H](O)CC[C@@H](O)C[C@@H](O)CC(=O)O[C@H]1C)C[C@H](O)[C@H]2C(=O)O [Amphotericin B] |  |  |  |  |  | Maximum adsorption (% of carrier weight) ([6]; 80:20 Type K, 0.9% NaCl pH 12 (KOH), equilibration 24 hrs): 10.4 ± 0.55 % of carrier weight |
| benzoporphyrin derivative monoacid A [BPD-ma] | > 4000 | 30.1% | 0.33 mg/mg % | 23.0% | 0.25 mg/mg % | increase in binding capacity [7]: 30 fold |
| CC[C@@]1(O)C(=O)OCc2c1cc1n(c2=O)Cc2cc3ccccc3nc2-1 [Camptothecin] |  |  |  |  |  | Adsorption constant [6, 12]: 521 (mg/ml)^−1; Maximum adsorption (% of carrier weight) [6, 12]: 11 % of carrier weight; Maximum adsorption (% of carrier weight) ([6]; 80:20 Type K, C/E 1:1 (chloroform:ethanol), equilibration 3 hrs, footnote: Below detection limit): 0^2 % of carrier weight |
| COc1cccc2c1C(=O)c1c(O)c3c(c(O)c1C2=O)C[C@@](O)(C(C)=O)C[C@@H]3O[C@H]1C[C@H](N)[C@H](O)[C@H](C)O1 [rubomicine] |  |  |  |  |  | life span following treatment increased by an average of [8]: 4.5 days |
| CC(=O)O[C@H]1C(=O)[C@@]2(C)[C@H]([C@H](OC(=O)c3ccccc3)[C@]3(O)C[C@H](OC(=O)[C@H](O)[C@@H](NC(=O)c4ccccc4)c4ccccc4)C(C)=C1C3(C)C)[C@]1(OC(C)=O)CO[C@@H]1C[C@@H]2O [paclitaxel] |  |  |  |  |  | IC50 [9]: 5 ng/mL (≈ 5.86 nM); IC50 [10]: 3 ng/mL (≈ 3.51 nM) |

Second part, led by results:

| octanol/buffer partition coefficient [1] | Compound | % binding, % ([2]; iron:carbon 30:70 Type A) | % binding, mg/mg % ([2]; iron:carbon 30:70 Type A) | % binding, % ([2]; iron:carbon 30:70 Type E) | % binding, mg/mg % ([2]; iron:carbon 30:70 Type E) | other results |
| --- | --- | --- | --- | --- | --- | --- |
| 1 | hematoporphyrin derivative [HPD] | 41.9% | 0.5 mg/mg % | 37.0% | 0.4 mg/mg % |  |
| 1.1 | clorin e6 | 69.9% | 0.8 mg/mg % | 68.8% | 0.7 mg/mg % |  |
